One may read the IC50 as the concentration at which inhibition is half-maximal. Low readings indicate inhibition by little substance, high ones a need for much substance. Broadly, the inhibition is the relative decrease from the control value, in per cent. A low value points to a weak effect.

The values below come from PMC3297592, “Metabolism of Phosphatidylinositol 4-Kinase IIIα-Dependent PI4P Is Subverted by HCV and Is Targeted by a 4-Anilino Quinazoline with Antiviral Activity” (PLoS Pathogens, 2012).

Common to all, as to test: ADP-Glo kinase assay
Format in all cases: biochemical
On the technique in general: ADP-Glo turns the ADP formed in a reaction into a luminescent signal.

The target in one experiment is T1, PI3Kα (p110α/p85α) (Homo sapiens, UniProt P42336).
T1 construct: gene PIK3CA; commercial purified p110α/p85α heterodimer (Millipore); with Phosphatidylinositol 3-kinase regulatory subunit alpha

Another experiment has as its target T2, PI3Kβ (p110β/p85α) (Homo sapiens, UniProt P42338).
T2 construct: gene PIK3CB; commercial purified p110β/p85α heterodimer (Millipore); with Phosphatidylinositol 3-kinase regulatory subunit alpha

Experiment [1] concerns the target T3, PI4KIIIα-CD (catalytic domain of PI4KIIIα) (Homo sapiens, UniProt P42356).
T3 construct: gene PI4KA; catalytic domain from G873 to the natural C-terminus, N-terminal His6 tag (pFastBac HT-B) kept, Sf9 / baculovirus, Ni-Sepharose; primer adds start ATG GGG (MGMMQCVI...); ends ...NDIPY

T2 sequence (P42338 whole entry): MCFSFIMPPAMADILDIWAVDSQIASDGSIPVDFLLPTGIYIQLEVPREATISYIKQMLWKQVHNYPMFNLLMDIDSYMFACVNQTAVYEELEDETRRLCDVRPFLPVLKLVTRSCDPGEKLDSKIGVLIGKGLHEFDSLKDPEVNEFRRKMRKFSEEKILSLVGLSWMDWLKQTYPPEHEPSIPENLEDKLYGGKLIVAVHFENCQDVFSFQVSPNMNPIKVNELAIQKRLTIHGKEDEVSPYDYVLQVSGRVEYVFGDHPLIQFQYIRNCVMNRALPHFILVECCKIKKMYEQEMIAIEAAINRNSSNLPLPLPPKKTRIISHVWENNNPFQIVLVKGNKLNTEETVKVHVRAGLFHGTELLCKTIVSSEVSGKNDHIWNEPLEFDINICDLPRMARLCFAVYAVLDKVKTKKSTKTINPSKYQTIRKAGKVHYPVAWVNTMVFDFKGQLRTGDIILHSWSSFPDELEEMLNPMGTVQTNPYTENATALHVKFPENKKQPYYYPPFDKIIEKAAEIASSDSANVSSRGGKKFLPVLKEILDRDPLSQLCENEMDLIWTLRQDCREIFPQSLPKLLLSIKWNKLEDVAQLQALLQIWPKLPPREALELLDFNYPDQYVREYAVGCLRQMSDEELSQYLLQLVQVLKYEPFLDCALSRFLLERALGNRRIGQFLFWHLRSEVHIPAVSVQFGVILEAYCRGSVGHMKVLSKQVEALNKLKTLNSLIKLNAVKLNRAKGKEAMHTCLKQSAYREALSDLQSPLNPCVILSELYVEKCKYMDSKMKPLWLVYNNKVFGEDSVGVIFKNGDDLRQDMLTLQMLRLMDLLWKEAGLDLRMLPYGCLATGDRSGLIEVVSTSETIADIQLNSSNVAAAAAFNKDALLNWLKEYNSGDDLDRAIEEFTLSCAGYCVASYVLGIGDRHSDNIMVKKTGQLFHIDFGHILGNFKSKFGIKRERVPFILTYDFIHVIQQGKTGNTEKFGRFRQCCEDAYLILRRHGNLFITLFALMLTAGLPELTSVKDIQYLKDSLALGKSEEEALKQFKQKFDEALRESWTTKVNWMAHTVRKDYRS
T2 sequence (P27986 2-724 partner): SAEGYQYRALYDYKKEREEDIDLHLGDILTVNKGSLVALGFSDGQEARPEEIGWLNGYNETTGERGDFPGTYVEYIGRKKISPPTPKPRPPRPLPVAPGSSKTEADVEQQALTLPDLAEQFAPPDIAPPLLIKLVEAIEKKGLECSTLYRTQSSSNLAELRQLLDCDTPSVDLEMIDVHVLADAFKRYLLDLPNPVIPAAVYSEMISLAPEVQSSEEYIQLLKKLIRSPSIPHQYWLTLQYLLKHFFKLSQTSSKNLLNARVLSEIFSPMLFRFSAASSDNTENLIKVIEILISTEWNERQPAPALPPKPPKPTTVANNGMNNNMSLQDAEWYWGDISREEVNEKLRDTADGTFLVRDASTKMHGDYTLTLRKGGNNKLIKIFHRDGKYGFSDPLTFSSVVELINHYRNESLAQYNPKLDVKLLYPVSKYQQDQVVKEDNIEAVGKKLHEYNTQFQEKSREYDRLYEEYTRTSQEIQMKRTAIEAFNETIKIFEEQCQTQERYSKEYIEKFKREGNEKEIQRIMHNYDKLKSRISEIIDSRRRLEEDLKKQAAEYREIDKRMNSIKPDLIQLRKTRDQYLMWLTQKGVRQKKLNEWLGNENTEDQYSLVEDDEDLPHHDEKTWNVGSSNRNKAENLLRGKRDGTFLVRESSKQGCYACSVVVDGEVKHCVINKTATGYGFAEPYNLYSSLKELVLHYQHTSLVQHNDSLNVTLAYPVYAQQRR
T1 sequence (P42336 whole entry): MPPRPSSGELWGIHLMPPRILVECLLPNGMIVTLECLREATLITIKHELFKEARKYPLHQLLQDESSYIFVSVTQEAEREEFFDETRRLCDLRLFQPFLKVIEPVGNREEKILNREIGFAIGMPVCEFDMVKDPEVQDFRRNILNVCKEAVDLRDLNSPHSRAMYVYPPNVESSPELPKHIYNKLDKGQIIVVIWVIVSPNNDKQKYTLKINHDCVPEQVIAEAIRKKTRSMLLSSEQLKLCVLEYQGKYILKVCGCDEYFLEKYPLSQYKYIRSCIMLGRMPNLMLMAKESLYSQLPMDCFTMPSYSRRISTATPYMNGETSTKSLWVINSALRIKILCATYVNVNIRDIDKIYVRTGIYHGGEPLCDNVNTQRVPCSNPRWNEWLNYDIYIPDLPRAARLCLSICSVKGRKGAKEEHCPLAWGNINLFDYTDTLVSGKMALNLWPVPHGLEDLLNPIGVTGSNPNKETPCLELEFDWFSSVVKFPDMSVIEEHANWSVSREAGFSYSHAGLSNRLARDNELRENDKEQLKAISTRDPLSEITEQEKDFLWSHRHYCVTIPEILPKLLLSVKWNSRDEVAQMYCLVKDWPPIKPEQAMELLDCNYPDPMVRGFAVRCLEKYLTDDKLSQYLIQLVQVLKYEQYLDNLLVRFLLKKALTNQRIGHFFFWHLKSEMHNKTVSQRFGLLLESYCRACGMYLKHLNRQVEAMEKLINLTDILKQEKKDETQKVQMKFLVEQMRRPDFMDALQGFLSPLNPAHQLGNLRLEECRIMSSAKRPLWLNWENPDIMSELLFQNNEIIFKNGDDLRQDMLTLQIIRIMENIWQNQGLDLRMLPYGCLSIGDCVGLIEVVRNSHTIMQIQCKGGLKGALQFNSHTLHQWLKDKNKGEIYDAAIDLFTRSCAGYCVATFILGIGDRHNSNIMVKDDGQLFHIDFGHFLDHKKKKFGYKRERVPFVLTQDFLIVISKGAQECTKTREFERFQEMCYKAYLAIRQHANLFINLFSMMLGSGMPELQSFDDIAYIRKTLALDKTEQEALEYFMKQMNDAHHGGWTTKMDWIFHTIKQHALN
T1 sequence (P27986 2-724 partner): as the sequence (P27986 2-724 partner) above
T3 sequence (P42356 931-2102): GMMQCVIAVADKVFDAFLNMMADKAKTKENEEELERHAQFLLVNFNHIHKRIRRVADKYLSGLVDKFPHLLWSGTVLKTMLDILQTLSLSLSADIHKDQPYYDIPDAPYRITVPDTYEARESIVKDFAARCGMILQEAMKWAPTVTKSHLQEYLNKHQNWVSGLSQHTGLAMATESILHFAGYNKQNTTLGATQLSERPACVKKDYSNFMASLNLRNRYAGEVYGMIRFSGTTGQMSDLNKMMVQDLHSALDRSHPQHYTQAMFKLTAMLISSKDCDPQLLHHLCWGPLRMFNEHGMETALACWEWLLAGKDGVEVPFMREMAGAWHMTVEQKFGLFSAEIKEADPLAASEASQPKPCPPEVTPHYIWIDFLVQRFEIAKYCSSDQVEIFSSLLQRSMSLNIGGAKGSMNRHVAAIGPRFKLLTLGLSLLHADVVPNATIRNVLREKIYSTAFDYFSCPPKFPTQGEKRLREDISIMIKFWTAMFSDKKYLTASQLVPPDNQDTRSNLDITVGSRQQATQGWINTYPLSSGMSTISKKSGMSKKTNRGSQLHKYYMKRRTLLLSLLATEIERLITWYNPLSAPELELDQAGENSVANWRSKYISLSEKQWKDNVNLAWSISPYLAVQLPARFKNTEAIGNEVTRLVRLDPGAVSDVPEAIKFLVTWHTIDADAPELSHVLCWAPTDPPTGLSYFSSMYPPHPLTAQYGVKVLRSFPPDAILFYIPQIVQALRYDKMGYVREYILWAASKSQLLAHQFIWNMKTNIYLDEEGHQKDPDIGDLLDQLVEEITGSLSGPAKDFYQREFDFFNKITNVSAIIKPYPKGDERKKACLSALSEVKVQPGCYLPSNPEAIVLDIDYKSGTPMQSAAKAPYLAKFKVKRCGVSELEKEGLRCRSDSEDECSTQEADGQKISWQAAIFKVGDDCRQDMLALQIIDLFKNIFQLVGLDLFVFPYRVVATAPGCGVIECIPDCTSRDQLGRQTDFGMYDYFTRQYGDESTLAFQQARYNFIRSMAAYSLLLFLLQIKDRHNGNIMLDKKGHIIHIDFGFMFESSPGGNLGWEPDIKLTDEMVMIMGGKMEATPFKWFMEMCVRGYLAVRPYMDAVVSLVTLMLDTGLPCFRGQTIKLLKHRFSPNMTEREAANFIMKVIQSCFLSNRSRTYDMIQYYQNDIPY

Regarding `OCc1ccc(-c2ccc3ncnc(Nc4ccc(N5CCOCC5)cc4)c3c2)o1` [AL-9], the IC50 against PI3Kα (p110α/p85α) came to 1100 nM; in experiment [1] it was 570 nM. The molecule further registered an inhibition at 10 µM against PI3Kβ (p110β/p85α) of 40%.
